Target: T1, Human orexin receptor type 2 (Homo sapiens, UniProt O43614)
T1 sequence (O43614 1-444): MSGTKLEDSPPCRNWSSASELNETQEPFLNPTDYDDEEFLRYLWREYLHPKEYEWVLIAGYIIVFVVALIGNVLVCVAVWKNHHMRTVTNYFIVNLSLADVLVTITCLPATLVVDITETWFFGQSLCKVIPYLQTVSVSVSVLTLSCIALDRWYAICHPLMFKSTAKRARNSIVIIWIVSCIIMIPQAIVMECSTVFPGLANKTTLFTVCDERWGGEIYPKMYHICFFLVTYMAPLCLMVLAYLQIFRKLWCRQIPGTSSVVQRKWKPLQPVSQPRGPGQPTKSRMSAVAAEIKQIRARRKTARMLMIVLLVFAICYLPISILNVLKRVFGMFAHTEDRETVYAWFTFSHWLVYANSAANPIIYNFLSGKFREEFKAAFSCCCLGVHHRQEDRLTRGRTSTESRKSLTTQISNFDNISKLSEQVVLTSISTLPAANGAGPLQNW
Assay: Test Example 1: agonist activity for orexin receptor type 2 (aequorin luminescence, intracellular calcium mobilization)
Conditions: compound 10 μm; CHO cells transiently expressing human orexin receptor type 2 and apoaequorin; relative percentage of luminescence for the luminescence (100%) of Orexin A (100 μM)

SMILES | Agonist Activity (%)
Cc1cccc(C2CCN(C(=O)Nc3c(F)cccc3N3CCN(C(C)C)CC3)CC2)c1 [Example 29, N-{2-fluoro-6-[4-(propan-2-yl)piperazin-1-yl]phenyl}-4-(3-methylphenyl)piperidine-1-carboxamide] | 77
CC(C)N1CC=C(c2cccc(Cl)c2NC(=O)N2CCC(C)(c3cc(C4CC4)on3)CC2)CC1 [Example 144, N-{2-chloro-6-[1-(propan-2-yl)-1,2,3,6-tetrahydropyridin-4-yl]phenyl}-4-(5-cyclopropyl-1,2-oxazol-3-yl)-4-methylpiperidine-1-carboxamide] | 143
COc1cccc(N2CCN(C(C)C)CC2)c1NC(=O)N1CCC(C)(c2noc(C(C)C)n2)CC1 [Example 21, N-{2-methoxy-6-[4-(propan-2-yl)piperazin-1-yl]phenyl}-4-methyl-4-[5-(propan-2-yl)-1,2,4-oxadiazol-3-yl]piperidine-1-carboxamide] | 156
CC(C)N1CCN(c2cccc(F)c2NC(=O)N2CCC(C)(c3noc(C4CC(F)(F)C4)n3)CC2)CC1 [Example 75, 4-[5-(3,3-difluorocyclobutyl)-1,2,4-oxadiazol-3-yl]-N-{2-fluoro-6-[4-(propan-2-yl)piperazin-1-yl]phenyl}-4-methylpiperidine-1-carboxamide] | 131
CC(C)N1C[C@H]2C[C@@H]1CN2c1cccc(F)c1NC(=O)N1CCC(C)(c2noc(C3CC3)n2)CC1 [Example 152, 4-(5-cyclopropyl-1,2,4-oxadiazol-3-yl)-N-{2-fluoro-6-[(1R,4R)-5-(propan-2-yl)-2,5-diazabicyclo[2.2.1]heptan-2-yl]phenyl}-4-methylpiperidine-1-carboxamide] | 136
Cc1ccc(C2CCN(C(=O)Nc3c(F)cccc3N3CCN(C(C)C)CC3)CC2)nc1 [Example 46, N-{2-fluoro-6-[4-(propan-2-yl)piperazin-1-yl]phenyl}-4-(5-methylpyridin-2-yl)piperidine-1-carboxamide] | 49
CCN1CCN(c2ccccc2NC(=O)N2CCC(c3ccc(C)cc3)CC2)CC1 [Example 122, N-[2-(4-ethylpiperazin-1-yl)phenyl]-4-(4-methylphenyl)piperidine-1-carboxamide] | 122
CC(C)N1CCN(c2cccc(Cl)c2NC(=O)N2CCc3ccccc3CC2)CC1 [Example 97, N-{2-chloro-6-[4-(propan-2-yl)piperazin-1-yl]phenyl}-1,2,4,5-tetrahydro-3H-3-benzazepine-3-carboxamide] | 69
CC(C)N1CCN(c2cccc(F)c2NC(=O)N2CCC(C)(c3cc(C4CC4)on3)CC2)CC1 [Example 54, 4-(5-cyclopropyl-1,2-oxazol-3-yl)-N-{2-fluoro-6-[4-(propan-2-yl)piperazin-1-yl]phenyl}-4-methylpiperidine-1-carboxamide] | 140
CC(C)N1C2CCC1CN(c1cccc(F)c1NC(=O)N1CCC(C)(c3noc(C4CC4)n3)CC1)C2 [Example 155, 4-(5-cyclopropyl-1,2,4-oxadiazol-3-yl)-N-{2-fluoro-6-[8-(propan-2-yl)-3,8-diazabicyclo[3.2.1]octan-3-yl]phenyl}-4-methylpiperidine-1-carboxamide] | 55
CC(C)N1CCN(c2cccc(Cl)c2NC(=O)N2CCC(C)(c3noc([C@@H]4C[C@@H]4C)n3)CC2)CC1 (racemic) [Example 104, Rac-N-{2-chloro-6-[4-(propan-2-yl)piperazin-1-yl]phenyl}-4-methyl-4-{5-[(1R,2S)-2-methylcyclopropyl]-1,2,4-oxadiazol-3-yl}piperidine-1-carboxamide] | 180
CC1(c2noc(C3CC3)n2)CCN(C(=O)Nc2c(Cl)cccc2C2=CCN(C3CCC3)CC2)CC1 [Example 131, N-[2-chloro-6-(1-cyclobutyl-1,2,3,6-tetrahydropyridin-4-yl)phenyl]-4-(5-cyclopropyl-1,2,4-oxadiazol-3-yl)-4-methylpiperidine-1-carboxamide] | 150
CC(C)N1CCC(Oc2cccc(Cl)c2NC(=O)N2CCC(C)(c3noc(C4CC4)n3)CC2)C1 (racemic) [Example 110, Rac-N-(2-chloro-6-{[1-(propan-2-yl)pyrrolidin-3-yl]oxy}phenyl)-4-(5-cyclopropyl-1,2,4-oxadiazol-3-yl)-4-methylpiperidine-1-carboxamide] | 148
CCN1CCN(c2ccccc2NC(=O)N2CCC(c3ccc(OC)cc3)CC2)CC1 [Example 1, N-[2-(4-Ethylpiperazin-1-yl)phenyl]-4-(4-methoxyphenyl)piperidine-1-carboxamide] | 77
Cc1ccc(C2CCN(C(=O)Nc3c(F)cccc3N3C[C@@H]4C[C@H]3CN4C(C)C)CC2)cc1 [Example 150, N-{2-fluoro-6-[(1S,4S)-5-(propan-2-yl)-2,5-diazabicyclo[2.2.1]heptan-2-yl]phenyl}-4-(4-methylphenyl)piperidine-1-carboxamide] | 116
CCOc1cccc(C2CCN(C(C)CC)CC2)c1NC(=O)N1CCC(c2ccc(C)cc2)CC1 (stereo not shown) [Example 128, N-{2-[1-(butan-2-yl)piperidin-4-yl]-6-ethoxyphenyl}-4-(4-methylphenyl)piperidine-1-carboxamide] | 136
Cc1ccc(C2CCN(C(=O)Nc3c(F)cccc3C3CCN(C(C)C(F)F)CC3)CC2)cc1 (stereo not shown) [Example 138, N-{2-[1-(1,1-difluoropropan-2-yl)piperidin-4-yl]-6-fluorophenyl}-4-(4-methylphenyl)piperidine-1-carboxamide] | 44
CC(C)c1noc(C2(C)CCN(C(=O)Nc3ccccc3N3CCN(C(C)C)CC3)CC2)n1.Cl [Example 163, 4-methyl-4-[3-(propan-2-yl)-1,2,4-oxadiazol-5-yl]-N-{2-[4-(propan-2-yl)piperazin-1-yl]phenyl}piperidine-1-carboxamide hydrochloride] | 110
CC(C)[C@H]1CO[C@H](c2cccc(Cl)c2NC(=O)N2CCC(C)(c3noc(C4CC4)n3)CC2)CN1 (racemic) [Example 167, Rac-N-{2-chloro-6-[(2R,5S)-5-(propan-2-yl)morpholin-2-yl]phenyl}-4-(5-cyclopropyl-1,2,4-oxadiazol-13-yl)-4-methylpiperidine-1-carboxamide] | 183
CC(C)N1CCN(c2cccc(Br)c2NC(=O)N2CCC(C)(c3noc(C4CC4)n3)CC2)CC1 [Example 88, N-{2-bromo-6-[4-(propan-2-yl)piperazin-1-yl]phenyl}-4-(5-cyclopropyl-1,2,4-oxadiazol-3-yl)-4-methylpiperidine-1-carboxamide] | 161
CC(C)N1CCN(c2cccc(Cl)c2NC(=O)N2CCC(C)(c3noc(C4CC(F)(F)C4)n3)CC2)CC1 [Example 76, N-{2-chloro-6-[4-(propan-2-yl)piperazin-1-yl]phenyl}-4-[5-(3,3-difluorocyclobutyl)-1,2,4-oxadiazol-3-yl]-4-methylpiperidine-1-carboxamide] | 148
Cc1ncc(C2(C)CCN(C(=O)Nc3c(Cl)cccc3N3CCN(C(C)C)CC3)CC2)o1 [Example 92, N-{2-chloro-6-[4-(propan-2-yl)piperazin-1-yl]phenyl}-4-methyl-4-(2-methyl-1,3-oxazol-5-yl)piperidine-1-carboxamide] | 196
Cc1nc(C2(C)CCN(C(=O)Nc3c(Cl)cccc3N3CCN(C(C)C)CC3)CC2)no1 [Example 81, N-{2-chloro-6-[4-(propan-2-yl)piperazin-1-yl]phenyl}-4-methyl-4-(5-methyl-1,2,4-oxadiazol-3-yl)piperidine-1-carboxamide] | 145
CCc1nc(C2(F)CCN(C(=O)Nc3c(Cl)cccc3N3CCN(C(C)C)CC3)CC2)no1 [Example 95, N-{2-chloro-6-[4-(propan-2-yl)piperazin-1-yl]phenyl}-4-(5-ethyl-1,2,4-oxadiazol-3-yl)-4-fluoropiperidine-1-carboxamide] | 178
Cc1ccc(C2(C)CCN(C(=O)Nc3c(Cl)cccc3N3CCN(C(C)C)CC3)CC2)cc1 [Example 77, N-{2-chloro-6-[4-(propan-2-yl)piperazin-1-yl]phenyl}-4-methyl-4-(4-methylphenyl)piperidine-1-carboxamide] | 158
Cc1ccc(C2CCN(C(=O)Nc3ccccc3N3CCN(C(C)C)CC3)CC2)cc1 [Example 121] | 130
Cc1ccc(N2CCCN(C(=O)Nc3c(Cl)cccc3N3CCN(C(C)C)CC3)CC2)cc1 [Example 99, N-{2-chloro-6-[4-(propan-2-yl)piperazin-1-yl]phenyl}-4-(4-methylphenyl)-1,4-diazepane-1-carboxamide] | 75
Cc1cc(C2(C)CCN(C(=O)Nc3c(Cl)cccc3N3CCN(C(C)C)CC3)CC2)no1 [Example 84, N-{2-chloro-6-[4-(propan-2-yl)piperazin-1-yl]phenyl}-4-methyl-4-(5-methyl-1,2-oxazol-3-yl)piperidine-1-carboxamide] | 110

From patent US20240308960A1 (Sumitomo Pharma Co., Ltd., priority 2021, published 2024)
